Data as given in ChEMBL document CHEMBL1201862, “PubChem BioAssay data set” (2004).
Calls of active or inactive are those of the source.

Assays:
[1] = biological target: Potassium channel subfamily K member 3 (Homo sapiens, UniProt O14649); assay: inhibition of human KCNK3 channel flux – CHO cells, FluxOR thallium flux, SAR follow-up (AID 652212); format: functional
[2] = tested on: Escherichia coli; assay: microbe, parasite or virus in culture
[3] = biological target: 1-phosphatidylinositol 4,5-bisphosphate phosphodiesterase gamma-1 (Homo sapiens, UniProt P19174); assay: Counterscreen for inhibitors of phospholipase C isozymes (PLC-B3): Fluorescence-based biochemical high throughput dose response assay to identify inhibitors of phospholipase C isozymes (PLC-gamma1).
[4] = biological target: 1-phosphatidylinositol 4,5-bisphosphate phosphodiesterase beta-3 (Homo sapiens, UniProt Q01970); assay: Fluorescence-based biochemical high throughput dose response assay to identify inhibitors of phospholipase C isozymes (PLC-B3).
[5] = viability loss in HEK293 cells – cell-based, plate reader, cherry-picked samples, cytotoxicity control, dose response (AID 743446); format: functional
[6] = toxicity toward HepG2 liver cells – cell-based, plate reader, cherry-pick, antagonist series, cytotoxicity control, dose response (AID 743416); format: functional
[7] = blockers of bursicon-stimulated LGR2 cAMP reporter – cell-based, HEK293, CRE-luciferase reporter, cherry pick, set 2, dose response (AID 743343); format: functional;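 also: transfected cells were stimulated with diluted bursicon conditioned medium after compound addition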
[8] = reduction of Shn3 3'UTR-driven luciferase in osteoblasts – cell-based, Clone20 osteoblasts, firefly luciferase, cherry-picked, dose response (AID 624132); format: functional;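 also: firefly luciferase luminescence from reporter carrying the Shn3 3'UTR in osteoblasts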
[9] = Shn3 3'UTR reporter signal decrease – cell-based, Clone20 osteoblasts, firefly luciferase, cherry-pick, set 2, Schnurri-3 inhibitor project, dose response (AID 720490); format: functional;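 also: actives lower the luminescence signal as inhibitors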
[10] = blockade of melanocortin 4 receptor signaling – cell-based, plate reader, cherry pick, counter-screen for LGR2 antagonist project, dose response (AID 743444); format: functional;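 also: transfected HEK 293 cells stimulated with alpha-MSH peptide; potency of inhibitors of the alpha-MSH evoked signal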
[11] = non-specific 3'UTR reporter inhibition in Clone20-Shn3RL – cell-based, Renilla luciferase, cherry-picked, counter-screen for Shn3 inhibitor project, dose response (AID 624133); format: functional
[12] = loss of viability in HepG2 cells – cell-based, CellTiter-Glo, cherry-picked, cytotoxicity control for Shn3 inhibitor project, dose response (AID 624134); format: functional
[13] = biological target: Caspase-6 (Homo sapiens, UniProt P55212); assay: inhibition of CASP6 peptide cleavage – biochemical, VEID-R110 fluorescence, cherry-pick, dose response (AID 720632)
[14] = toxicity toward immortalized ovarian surface epithelium – cell-based, plate reader, dry powder samples, cytotoxicity control for PAX8 inhibitor project, dose response (AID 743045); format: functional
[15] = biological target: Paired box protein Pax-8 (Homo sapiens, UniProt Q06710); assay: PAX8 transcriptional activity inhibition in RMG-I – RMG-I cells, luciferase, cherry-pick, dose response (AID 687027); format: functional, cell-based;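 also: luciferase reporter driven by Pax8 target thyroperoxidase promoter measured by SteadyGlo luminescence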
[16] = OVCAR8 cell viability loss – plate reader, dry powder samples, PAX8 project, dose response (AID 743197); format: functional, cell-based; conditions: OVCAR-8
[17] = OVCAR-3 cell viability loss – plate reader, dry powder samples, PAX8 inhibitor project, dose response (AID 743044); format: functional, cell-based

Paired box protein Pax-8, sequence (Q06710 whole entry): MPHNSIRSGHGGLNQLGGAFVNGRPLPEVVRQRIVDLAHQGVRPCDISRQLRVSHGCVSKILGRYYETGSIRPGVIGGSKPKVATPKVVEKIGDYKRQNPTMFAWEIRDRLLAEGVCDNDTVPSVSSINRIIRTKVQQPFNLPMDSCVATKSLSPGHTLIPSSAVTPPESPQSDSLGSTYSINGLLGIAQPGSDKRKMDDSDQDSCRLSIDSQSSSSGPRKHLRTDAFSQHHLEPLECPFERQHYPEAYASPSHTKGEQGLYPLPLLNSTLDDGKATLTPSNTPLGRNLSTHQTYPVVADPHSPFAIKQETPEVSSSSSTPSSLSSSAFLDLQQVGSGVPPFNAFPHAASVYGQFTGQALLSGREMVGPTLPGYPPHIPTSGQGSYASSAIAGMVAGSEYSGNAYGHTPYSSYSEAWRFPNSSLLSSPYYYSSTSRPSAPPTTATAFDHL
1-phosphatidylinositol 4,5-bisphosphate phosphodiesterase beta-3, sequence (Q01970 whole entry): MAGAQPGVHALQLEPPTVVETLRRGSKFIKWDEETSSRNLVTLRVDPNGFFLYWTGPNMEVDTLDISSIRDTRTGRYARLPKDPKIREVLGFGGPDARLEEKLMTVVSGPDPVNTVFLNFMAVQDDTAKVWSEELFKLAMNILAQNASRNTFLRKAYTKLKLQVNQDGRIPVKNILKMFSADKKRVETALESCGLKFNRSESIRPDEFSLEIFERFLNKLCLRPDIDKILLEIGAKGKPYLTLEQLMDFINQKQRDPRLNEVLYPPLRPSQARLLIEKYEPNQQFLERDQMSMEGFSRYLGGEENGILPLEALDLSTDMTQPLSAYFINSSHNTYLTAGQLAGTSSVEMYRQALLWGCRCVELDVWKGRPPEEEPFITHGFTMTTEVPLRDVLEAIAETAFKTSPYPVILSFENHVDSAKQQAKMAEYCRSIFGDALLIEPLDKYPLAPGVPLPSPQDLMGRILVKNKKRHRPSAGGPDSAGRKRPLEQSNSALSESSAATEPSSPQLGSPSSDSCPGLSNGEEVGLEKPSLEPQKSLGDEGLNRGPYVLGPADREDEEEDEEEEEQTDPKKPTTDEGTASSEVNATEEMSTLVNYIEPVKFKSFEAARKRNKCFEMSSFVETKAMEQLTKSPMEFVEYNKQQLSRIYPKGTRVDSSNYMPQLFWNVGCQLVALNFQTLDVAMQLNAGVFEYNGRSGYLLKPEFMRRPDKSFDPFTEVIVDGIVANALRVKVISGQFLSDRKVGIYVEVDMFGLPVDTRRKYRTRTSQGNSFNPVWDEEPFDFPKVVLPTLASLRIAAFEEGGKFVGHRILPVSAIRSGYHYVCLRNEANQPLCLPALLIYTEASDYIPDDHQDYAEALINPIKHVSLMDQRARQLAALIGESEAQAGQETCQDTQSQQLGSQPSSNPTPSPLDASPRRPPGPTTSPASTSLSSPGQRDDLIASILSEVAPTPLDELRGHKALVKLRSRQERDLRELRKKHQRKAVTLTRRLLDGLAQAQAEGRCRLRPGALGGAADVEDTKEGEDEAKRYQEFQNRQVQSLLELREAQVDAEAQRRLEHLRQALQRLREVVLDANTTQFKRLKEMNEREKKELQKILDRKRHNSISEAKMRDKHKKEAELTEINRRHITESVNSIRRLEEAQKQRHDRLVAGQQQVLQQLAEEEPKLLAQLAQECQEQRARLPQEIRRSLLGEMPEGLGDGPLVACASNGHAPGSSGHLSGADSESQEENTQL
Potassium channel subfamily K member 3, sequence (O14649 whole entry): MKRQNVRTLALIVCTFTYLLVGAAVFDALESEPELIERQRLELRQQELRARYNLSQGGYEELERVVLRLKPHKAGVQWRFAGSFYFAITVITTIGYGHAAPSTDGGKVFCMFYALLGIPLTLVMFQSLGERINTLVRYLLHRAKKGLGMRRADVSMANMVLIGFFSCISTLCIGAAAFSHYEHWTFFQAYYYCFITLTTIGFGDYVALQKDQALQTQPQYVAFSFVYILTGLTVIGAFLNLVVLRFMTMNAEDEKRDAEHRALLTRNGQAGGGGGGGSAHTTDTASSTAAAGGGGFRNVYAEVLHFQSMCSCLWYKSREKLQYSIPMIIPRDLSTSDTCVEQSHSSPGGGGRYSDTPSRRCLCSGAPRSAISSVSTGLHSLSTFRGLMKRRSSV
1-phosphatidylinositol 4,5-bisphosphate phosphodiesterase gamma-1, sequence (P19174 whole entry): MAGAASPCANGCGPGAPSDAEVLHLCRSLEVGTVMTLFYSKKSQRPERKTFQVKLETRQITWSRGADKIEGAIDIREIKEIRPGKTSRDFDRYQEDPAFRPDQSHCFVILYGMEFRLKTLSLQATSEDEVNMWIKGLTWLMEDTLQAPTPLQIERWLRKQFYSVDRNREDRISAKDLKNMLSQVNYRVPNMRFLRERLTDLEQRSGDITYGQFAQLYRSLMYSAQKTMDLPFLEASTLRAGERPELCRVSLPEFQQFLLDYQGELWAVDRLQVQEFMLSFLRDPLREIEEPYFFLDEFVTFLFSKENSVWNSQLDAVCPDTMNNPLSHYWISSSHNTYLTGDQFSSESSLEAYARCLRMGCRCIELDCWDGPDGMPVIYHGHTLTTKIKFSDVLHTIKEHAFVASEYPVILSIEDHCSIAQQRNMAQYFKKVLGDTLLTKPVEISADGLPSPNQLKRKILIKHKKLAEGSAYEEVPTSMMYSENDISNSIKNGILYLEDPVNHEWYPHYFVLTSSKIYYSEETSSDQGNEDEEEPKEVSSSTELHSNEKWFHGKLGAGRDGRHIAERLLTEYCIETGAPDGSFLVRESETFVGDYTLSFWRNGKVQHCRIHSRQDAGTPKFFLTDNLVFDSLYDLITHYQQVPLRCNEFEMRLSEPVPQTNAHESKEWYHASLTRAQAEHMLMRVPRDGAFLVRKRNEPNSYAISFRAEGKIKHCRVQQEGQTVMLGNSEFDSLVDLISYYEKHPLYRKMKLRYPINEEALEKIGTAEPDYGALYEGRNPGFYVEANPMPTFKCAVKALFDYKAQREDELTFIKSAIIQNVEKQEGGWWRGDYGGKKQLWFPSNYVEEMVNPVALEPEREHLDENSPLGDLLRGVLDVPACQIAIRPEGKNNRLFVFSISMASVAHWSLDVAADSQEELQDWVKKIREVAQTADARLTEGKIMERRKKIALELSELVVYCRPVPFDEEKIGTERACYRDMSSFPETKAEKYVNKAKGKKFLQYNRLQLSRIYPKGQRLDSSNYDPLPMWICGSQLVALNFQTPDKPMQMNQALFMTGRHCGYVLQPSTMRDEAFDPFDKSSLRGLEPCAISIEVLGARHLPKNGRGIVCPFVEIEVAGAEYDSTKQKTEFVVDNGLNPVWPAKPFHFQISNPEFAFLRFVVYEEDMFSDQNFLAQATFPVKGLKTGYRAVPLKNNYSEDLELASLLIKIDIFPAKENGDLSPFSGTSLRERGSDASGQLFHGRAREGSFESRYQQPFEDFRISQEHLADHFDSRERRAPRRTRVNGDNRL
Caspase-6, sequence (P55212 24-179 limits assumed): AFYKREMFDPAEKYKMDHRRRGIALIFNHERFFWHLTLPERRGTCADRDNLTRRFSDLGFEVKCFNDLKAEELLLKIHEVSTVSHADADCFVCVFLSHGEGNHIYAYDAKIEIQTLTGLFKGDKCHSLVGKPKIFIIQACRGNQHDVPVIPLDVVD
Caspase-6, sequence (P55212 194-293 limits assumed): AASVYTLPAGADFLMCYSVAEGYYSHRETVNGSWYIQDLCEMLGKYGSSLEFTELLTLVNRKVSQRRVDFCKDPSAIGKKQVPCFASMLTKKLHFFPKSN

In the case of `O=C(Nc1cccc(NC(=O)c2ccco2)c1)c1ccccc1`, the IC50 [1] is reported as 0.036 µM (active) and the AC50 [2] is reported as 25 µM (active).
With `CC(C)c1ccccc1NC(=O)Nc1ccc2c(c1)OCO2` the IC50 [3] was > 123 µM (inactive) and the IC50 [4] was > 123 µM (inactive).
For `COc1cc(NC(=O)c2cccc3c(-c4cccnc4)coc23)cc(OC)c1OC`, the AC50 [5] was 28.6 µM (active), the AC50 [6] was > 52 µM (inactive) and the AC50 [7] was 11.2 µM (active). The AC50 [8] was 0.978 µM (active), the AC50 [9] was 5.23 µM (active) and the AC50 [10] was 11.2 µM (active). The AC50 [11] was 11.5 µM (active) and the AC50 [12] was 57.5 µM (active).
With `NNC(=O)CNC(=O)Nc1nnc(S)s1` the AC50 [13] was 6.63 µM (active).
In the case of `C[C@@H]1CCCCO[C@H](CN(C)Cc2ccc(C(=O)Nc3ccccc3N)cc2)[C@@H](C)CN([C@@H](C)CO)C(=O)c2cc(NS(=O)(=O)c3ccc(Cl)cc3)ccc2O1`, the AC50 [14] is reported as 46.9 µM (active), the AC50 [15] is reported as 11.7 µM (active) and the AC50 [16] is reported as 41.6 µM (active). The AC50 [17] was 7.38 µM (active).
In the case of `COc1ccc(S(=O)(=O)Nc2ccc3c(c2)C(=O)N([C@@H](C)CO)C[C@@H](C)[C@@H](CN(C)Cc2ccc(C(F)(F)F)cc2)OCCCC[C@@H](C)O3)cc1`, the AC50 [14] is reported as 24 µM (active), the AC50 [15] is reported as 6.1 µM (active) and the AC50 [16] is reported as 22.5 µM (active). For the same molecule, the AC50 [17] was 23.1 µM (active).
